Data on 18 compounds can be found in patent publication US20230117034A1, “PYRAZOLOTRIAZINES” (Bayer Aktiengesellschaft, priority 2019, published 2023).

For one assay, the target named is T1, CDK2/CycE (Homo sapiens, UniProt P24941).
T1 construct: purchased ProQinase GmbH (Freiburg, Germany); host or cells: insect cells (Sf9)
The assay can be described thus: CDK2/CycE kinase assay (TR-FRET, 2 mM ATP). Particulars: 2 mM ATP (high ATP); median; read-out: CDK2/CyclinE, 2 mM ATP (high ATP), IC50 (median). In kind it is biochemical. An outline of the steps:
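Biotin-peptide phosphorylation (0.75 µM substrate, 2 mM ATP final, 25 min, 22 °C) by Sf9-expressed GST-CDK2/GST-CycE, after a 15-min compound pre-binding step. Inhibition scaled between enzyme-free (100%) and uninhibited (0%) wells.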

Assay [1] has as its target T2, CYCLIN K (nuclear staining in CAL-120 cells) (Homo sapiens, UniProt O75909).
T2 construct: endogenous in cells; host or cells: CAL-120 human breast cancer cells (DSMZ ACC 459)
Nature of the assay: CYCLIN K nuclear protein level: immunofluorescence high content analysis (CAL-120). Type of assay: cell-based. As to conditions: 24 h, 50% reduction of nuclear CCNK staining intensity, median, read-out: CYCLIN K degradation IF, DC50-[mol/l] (median). An outline of the steps:
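Readout is automated confocal image analysis of nuclear cyclin K immunofluorescence (Hoechst nuclei) after PFA fixation. Cells were CAL-120, exposed to compound dose-response 24 h at 37 °C; values are DC50 for halving nuclear CCNK signal relative to DMSO and control wells.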

The subject of assay [2] is CAL-120, human breast adenocarcinoma cells. The assay can be described thus: Proliferation assay CAL-120 (crystal violet, 4 days). As to conditions: Homo sapiens, CAL-120, 96 h, CAL-120 cells, median, read-out: Prolif-CAL-120, IC50-[mol/l] (median). Type of assay: cell-based. An outline of the steps:
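IC50 from a 4-parameter fit of crystal violet absorbance (595 nm), scaled between the day-of-dosing plate (0%) and vehicle cells (100%). MDA-MB-231 or CAL-120 cells were treated for 4 days with 0.01–10 micromol/L compound in 0.1% DMSO after 24 h attachment.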

T2 sequence (O75909 whole entry): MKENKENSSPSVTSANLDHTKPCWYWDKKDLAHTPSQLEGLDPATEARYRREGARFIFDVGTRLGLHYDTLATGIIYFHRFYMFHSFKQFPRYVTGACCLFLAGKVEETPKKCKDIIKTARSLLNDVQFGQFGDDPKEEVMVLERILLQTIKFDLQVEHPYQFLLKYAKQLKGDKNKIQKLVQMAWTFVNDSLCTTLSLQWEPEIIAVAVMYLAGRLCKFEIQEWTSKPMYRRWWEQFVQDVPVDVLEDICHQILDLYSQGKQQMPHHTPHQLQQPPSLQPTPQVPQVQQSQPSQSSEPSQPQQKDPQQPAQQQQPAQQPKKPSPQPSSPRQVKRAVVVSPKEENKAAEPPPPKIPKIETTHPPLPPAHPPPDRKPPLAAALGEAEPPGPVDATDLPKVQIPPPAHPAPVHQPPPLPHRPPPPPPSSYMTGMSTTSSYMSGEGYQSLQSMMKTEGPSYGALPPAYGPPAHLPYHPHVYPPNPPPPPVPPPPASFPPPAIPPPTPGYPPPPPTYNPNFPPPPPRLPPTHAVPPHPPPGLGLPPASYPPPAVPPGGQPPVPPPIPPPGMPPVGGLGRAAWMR
T2 sequence (Q9NYV4 whole entry partner): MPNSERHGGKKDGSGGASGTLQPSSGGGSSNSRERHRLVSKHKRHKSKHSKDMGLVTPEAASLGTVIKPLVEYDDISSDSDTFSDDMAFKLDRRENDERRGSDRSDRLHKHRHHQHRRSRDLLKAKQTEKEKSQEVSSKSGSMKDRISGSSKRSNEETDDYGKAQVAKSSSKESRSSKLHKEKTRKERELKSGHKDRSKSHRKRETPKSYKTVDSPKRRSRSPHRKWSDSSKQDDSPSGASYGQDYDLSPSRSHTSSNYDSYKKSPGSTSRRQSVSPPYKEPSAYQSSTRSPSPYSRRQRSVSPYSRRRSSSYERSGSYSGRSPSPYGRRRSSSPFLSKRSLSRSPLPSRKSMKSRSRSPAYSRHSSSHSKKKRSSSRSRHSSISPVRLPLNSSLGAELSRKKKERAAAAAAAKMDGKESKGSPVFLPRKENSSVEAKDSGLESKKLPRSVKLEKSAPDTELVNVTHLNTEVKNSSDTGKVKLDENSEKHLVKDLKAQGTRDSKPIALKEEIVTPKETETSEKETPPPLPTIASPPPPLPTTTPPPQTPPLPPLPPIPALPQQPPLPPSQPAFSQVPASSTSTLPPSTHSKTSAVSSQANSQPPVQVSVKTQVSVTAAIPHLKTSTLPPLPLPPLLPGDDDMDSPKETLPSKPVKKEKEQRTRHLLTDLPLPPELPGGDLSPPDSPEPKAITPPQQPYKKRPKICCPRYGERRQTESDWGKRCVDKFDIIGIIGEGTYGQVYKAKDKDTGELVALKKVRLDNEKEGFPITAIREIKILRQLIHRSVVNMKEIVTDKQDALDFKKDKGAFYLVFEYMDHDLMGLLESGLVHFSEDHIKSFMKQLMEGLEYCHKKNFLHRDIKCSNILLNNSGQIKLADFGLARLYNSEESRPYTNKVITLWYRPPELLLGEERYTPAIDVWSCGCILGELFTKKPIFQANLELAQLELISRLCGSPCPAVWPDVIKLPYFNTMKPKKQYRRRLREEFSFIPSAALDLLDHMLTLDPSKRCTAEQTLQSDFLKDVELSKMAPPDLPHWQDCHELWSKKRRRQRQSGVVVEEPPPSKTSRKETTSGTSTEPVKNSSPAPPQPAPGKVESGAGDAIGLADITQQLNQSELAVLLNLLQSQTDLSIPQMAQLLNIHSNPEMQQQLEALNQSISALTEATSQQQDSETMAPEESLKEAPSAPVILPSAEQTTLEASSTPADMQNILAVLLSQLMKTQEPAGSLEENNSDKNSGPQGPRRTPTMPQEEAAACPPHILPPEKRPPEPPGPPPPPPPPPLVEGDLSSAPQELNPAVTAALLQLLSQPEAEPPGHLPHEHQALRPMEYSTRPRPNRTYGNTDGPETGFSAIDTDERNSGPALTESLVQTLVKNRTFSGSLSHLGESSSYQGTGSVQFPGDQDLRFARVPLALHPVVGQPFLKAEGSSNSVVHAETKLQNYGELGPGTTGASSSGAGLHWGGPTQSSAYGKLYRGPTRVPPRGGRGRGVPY

For the compound `COC1CCN(c2nc(NCc3nnc(-c4ccccc4)[nH]3)n3ncc(Br)c3n2)CC1` [Example 76, 8-bromo-2-(4-methoxypiperidin-1-yl)-N-[(5-phenyl-4H-1,2,4-triazol-3-yl)methyl]pyrazolo[1,5-a][1,3,5]triazin-4-amine], the IC50 on CDK2/CycE turned out to be 8340 nM; in assay [2], 110 nM. The DC50 in assay [1] worked out at 8.06 nM.

Take `Fc1cccc(-c2cnc(CNc3nc(N4CCOCC4)nc4c(Br)cnn34)[nH]2)c1` [Example 79, 8-bromo-N-{[5-(3-fluorophenyl)-1H-imidazol-2-yl]methyl}-2-(morpholin-4-yl)pyrazolo[1,5-a][1,3,5]triazin-4-amine]: the IC50 at CDK2/CycE stood at 2300 nM; in assay [2], 4.67 nM. Also, the DC50 in assay [1] is 0.469 nM.

For the compound `FC(F)(F)c1cccc(-c2cnc(CNc3nc(N4CCOCC4)nc4c(Br)cnn34)[nH]2)c1` [Example 83, 8-bromo-2-(morpholin-4-yl)-N-({5-[3-(trifluoromethyl)phenyl]-1H-imidazol-2-yl}methyl)pyrazolo[1,5-a][1,3,5]triazin-4-amine], the IC50 was 7660 nM on CDK2/CycE and 12.1 nM in assay [2]. Besides, in assay [1], the DC50 was 1.78 nM.

On to `c1ccc2[nH]c(CNc3nc(N4CCOCC4)nc4c(C5CC5)cnn34)nc2c1` [Example 92, N-[(1H-benzimidazol-2-yl)methyl]-8-cyclopropyl-2-(morpholin-4-yl)pyrazolo[1,5-a][1,3,5]triazin-4-amine], for which the IC50 was 15600 nM on CDK2/CycE and 12 nM in assay [2]. In addition, in assay [1], the DC50 turned out to be 0.381 nM.

Turning to `FC(F)(F)Oc1ccccc1-c1cnc(CNc2nc(N3CCOCC3)nc3c(Br)cnn23)[nH]1` [Example 89, 8-bromo-2-(morpholin-4-yl)-N-({5-[2-(trifluoromethoxy)phenyl]-1H-imidazol-2-yl}methyl)pyrazolo[1,5-a][1,3,5]triazin-4-amine], the IC50 worked out at 9870 nM at CDK2/CycE and 32.9 nM in assay [2]. The DC50 in assay [1] came out at 1.43 nM.

For the compound `Brc1cnn2c(NCc3ncc(-c4cccnc4)[nH]3)nc(N3CCOCC3)nc12` [Example 84, 8-bromo-2-(morpholin-4-yl)-N-{[5-(pyridin-3-yl)-1H-imidazol-2-yl]methyl}pyrazolo[1,5-a][1,3,5]triazin-4-amine], the IC50 on CDK2/CycE was 4840 nM; in assay [2] it was 107 nM. Also, the DC50 in assay [1] was determined as 11.8 nM.

As to `CN1CCN(c2nc(NCc3nc4cc(C(F)(F)F)ccc4[nH]3)n3ncc(C4CC4)c3n2)CC1` [Example 313, 8-cyclopropyl-2-(4-methylpiperazin-1-yl)-N-{[5-(trifluoromethyl)-1H-benzimidazol-2-yl]methyl}pyrazolo[1,5-a][1,3,5]triazin-4-amine], the figures for the IC50 (on CDK2/CycE; in assay [2]) were over 20000 nM and 9.52 nM, respectively. The DC50 in assay [1] amounted to 1.57 nM.

With `Clc1cccc(-c2cnc(CNc3nc(N4CCOCC4)nc4c(Br)cnn34)[nH]2)c1` [Example 81, 8-bromo-N-{[5-(3-chlorophenyl)-1H-imidazol-2-yl]methyl}-2-(morpholin-4-yl)pyrazolo[1,5-a][1,3,5]triazin-4-amine], the IC50 at CDK2/CycE was 4030 nM; in assay [2], 4.14 nM. Besides, the DC50 in assay [1] was 3.87 nM.

Consider `C[C@@H]1CN(c2nc(NCc3nc4ccccc4[nH]3)n3ncc(Br)c3n2)C[C@H](C)O1` [Example 73, N-[(1H-benzimidazol-2-yl)methyl]-8-bromo-2-[(2R,6S)-2,6-dimethylmorpholin-4-yl]pyrazolo[1,5-a][1,3,5]triazin-4-amine], for which the IC50 at CDK2/CycE was 6090 nM; in assay [2], 23 nM. Besides, the DC50 in assay [1] is 0.735 nM.

Take `OC[C@@H]1CCCCN1c1nc(NCc2nnc(-c3ccccc3)[nH]2)n2ncc(Br)c2n1` [Example 70, [(2S)-1-(8-bromo-4-{[(5-phenyl-4H-1,2,4-triazol-3-yl)methyl]amino}pyrazolo[1,5-a][1,3,5]triazin-2-yl)piperidin-2-yl]methanol]: the figures for the IC50 (at CDK2/CycE; in assay [2]) were 1540 nM and 49 nM, respectively. The DC50 in assay [1] came out at 11.7 nM.

In the case of `COC1CCN(c2nc(NCc3nc4ccccc4[nH]3)n3ncc(Br)c3n2)CC1` [Example 62, N-[(1H-benzimidazol-2-yl)methyl]-8-bromo-2-(4-methoxypiperidin-1-yl)pyrazolo[1,5-a][1,3,5]triazin-4-amine], the IC50 turned out to be 6450 nM on CDK2/CycE and 32.5 nM in assay [2]. Also, the DC50 in assay [1] was determined as 2.27 nM.

Consider `c1ccc(-c2nnc(CNc3nc(N4CCOCC4)nc4c(C5CC5)cnn34)[nH]2)cc1` [Example 93, 8-cyclopropyl-2-(morpholin-4-yl)-N-[(5-phenyl-4H-1,2,4-triazol-3-yl)methyl]pyrazolo[1,5-a][1,3,5]triazin-4-amine], for which the IC50 at CDK2/CycE turned out to be 10500 nM; in assay [2] it was 100 nM. For the same compound, the DC50 in assay [1] turned out to be 17.3 nM.

Consider `Fc1ccc(-c2cnc(CNc3nc(N4CCOCC4)nc4c(Br)cnn34)[nH]2)cc1` [Example 66, 8-bromo-N-{[5-(4-fluorophenyl)-1H-imidazol-2-yl]methyl}-2-(morpholin-4-yl)pyrazolo[1,5-a][1,3,5]triazin-4-amine], for which the results for the IC50 (on CDK2/CycE; in assay [2]) were 2300 nM and 230 nM, respectively. In addition, in assay [1], the DC50 is 2.45 nM.

Take `OC[C@H]1CCCCN1c1nc(NCc2nnc(-c3ccccc3)[nH]2)n2ncc(Br)c2n1` [Example 71, [(2R)-1-(8-bromo-4-{[(5-phenyl-4H-1,2,4-triazol-3-yl)methyl]amino}pyrazolo[1,5-a][1,3,5]triazin-2-yl)piperidin-2-yl]methanol]: the IC50 on CDK2/CycE was 2230 nM; in assay [2], 32 nM. The DC50 in assay [1] was 2.77 nM.

With `CC1(C)CN(c2nc(NCc3nnc(-c4ccccc4)[nH]3)n3ncc(Br)c3n2)CCO1` [Example 68, 8-bromo-2-(2,2-dimethylmorpholin-4-yl)-N-[(5-phenyl-4H-1,2,4-triazol-3-yl)methyl]pyrazolo[1,5-a][1,3,5]triazin-4-amine], the IC50 at CDK2/CycE was determined as 10600 nM; in assay [2], 40.2 nM. Further, the DC50 in assay [1] stood at 2.85 nM.

Take `COc1cccc(-c2cnc(CNc3nc(N4CCOCC4)nc4c(Br)cnn34)[nH]2)c1` [Example 80, 8-bromo-N-{[5-(3-methoxyphenyl)-1H-imidazol-2-yl]methyl}-2-(morpholin-4-yl)pyrazolo[1,5-a][1,3,5]triazin-4-amine]: the IC50 on CDK2/CycE was 4040 nM; in assay [2], 14.2 nM. Besides, in assay [1], the DC50 stood at 1.34 nM.

Consider `Fc1ccccc1-c1cnc(CNc2nc(N3CCOCC3)nc3c(Br)cnn23)[nH]1` [Example 86, 8-bromo-N-{[5-(2-fluorophenyl)-1H-imidazol-2-yl]methyl}-2-(morpholin-4-yl)pyrazolo[1,5-a][1,3,5]triazin-4-amine], for which the figures for the IC50 (on CDK2/CycE; in assay [2]) were 1950 nM and 14.4 nM, respectively. Moreover, the DC50 in assay [1] was 0.576 nM.

With `COc1ccccc1-c1cnc(CNc2nc(N3CCOCC3)nc3c(Br)cnn23)[nH]1` [Example 87, 8-bromo-N-{[5-(2-methoxyphenyl)-1H-imidazol-2-yl]methyl}-2-(morpholin-4-yl)pyrazolo[1,5-a][1,3,5]triazin-4-amine], the IC50 came to 2550 nM at CDK2/CycE and 6.58 nM in assay [2]. The DC50 in assay [1] was 0.667 nM.
